From paper PMC8788145 (Journal of medicinal chemistry, 2017)
“And” between values parts separate entries of the source, which are not always exact repeats. Equal values may be shown once.

Tests used:
Format in all cases: biochemical
human plasmin [1] = target: T1, human plasmin (Homo sapiens, UniProt P00747); experiment: Direct inhibition of human plasmin, chromogenic substrate; conditions: for HS (Hill slope): Tris-HCl buffer pH 7.4, 37 °C
human plasmin [2] = target: T1, human plasmin; experiment: Michaelis-Menten kinetics of Spectrozyme PL hydrolysis by human plasmin
human plasmin [3] = target: T1, human plasmin; experiment: Protamine reversibility of plasmin inhibition by NSGM 2; conditions: plasmin treated with inhibitor 2 (200 μM), pH 7.4, 37 °C

T1 sequence (P00747 97-580 limits assumed): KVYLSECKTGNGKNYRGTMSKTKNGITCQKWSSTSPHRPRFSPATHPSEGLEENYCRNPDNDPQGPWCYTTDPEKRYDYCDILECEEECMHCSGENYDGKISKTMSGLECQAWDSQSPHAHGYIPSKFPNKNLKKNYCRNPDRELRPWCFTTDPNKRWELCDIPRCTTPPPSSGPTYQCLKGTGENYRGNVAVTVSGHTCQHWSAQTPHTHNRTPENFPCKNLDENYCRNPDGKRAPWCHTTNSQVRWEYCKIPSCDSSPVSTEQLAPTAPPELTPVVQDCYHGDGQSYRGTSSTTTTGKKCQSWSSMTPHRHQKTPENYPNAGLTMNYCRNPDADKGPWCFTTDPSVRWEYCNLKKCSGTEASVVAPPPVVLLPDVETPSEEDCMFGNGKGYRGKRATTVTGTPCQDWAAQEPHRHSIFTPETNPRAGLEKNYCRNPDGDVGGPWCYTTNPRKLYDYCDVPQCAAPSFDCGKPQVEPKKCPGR
T1 sequence (P00747 581-810 limits assumed): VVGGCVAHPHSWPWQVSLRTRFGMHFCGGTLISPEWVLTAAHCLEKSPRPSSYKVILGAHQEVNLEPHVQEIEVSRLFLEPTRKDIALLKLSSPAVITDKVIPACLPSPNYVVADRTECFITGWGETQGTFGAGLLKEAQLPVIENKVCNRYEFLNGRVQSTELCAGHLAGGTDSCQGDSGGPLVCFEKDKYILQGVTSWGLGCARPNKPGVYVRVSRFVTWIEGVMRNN

HS (Hill slope) (human plasmin [1])	Compound	also measured
0.9 ± 0.1	O=c1cc(-c2ccc(OS(=O)(=O)[O-])cc2)oc2cc(OS(=O)(=O)[O-])cc(OCc3ccc(COc4cc(OS(=O)(=O)[O-])cc5oc(-c6ccc(OS(=O)(=O)[O-])c(OS(=O)(=O)[O-])c6)c(OS(=O)(=O)[O-])c(=O)c45)cc3)c12.[Na+].[Na+].[Na+].[Na+].[Na+].[Na+] [NSGM 16, Sodium 4-(4-Oxo-5-((4-(((4-oxo-7-(sulfonatooxy)-2-(4-(sulfonatooxy)phenyl)-4H-chromen-5-yl)oxy)methyl)benzyl)-oxy)-3,7-bis(sulfonatooxy)-4H-chromen-2-yl)-1,2-phenylene Bis(sulfate)]	
2.4 ± 0.3	O=c1cc(-c2ccc(OS(=O)(=O)[O-])cc2)oc2cc(OS(=O)(=O)[O-])cc(OCc3ccc(COc4cc(OS(=O)(=O)[O-])cc5oc(-c6ccc(OS(=O)(=O)[O-])cc6)cc(=O)c45)cc3)c12.[Na+].[Na+].[Na+].[Na+] [NSGM 11, Sodium 4-Oxo-5-((4-(((4-oxo-7-(sulfonatooxy)-2-(4-(sulfonatooxy)phenyl)-4H-chromen-5-yl)oxy)methyl)benzyl)-oxy)-2-(4-(sulfonatooxy)phenyl)-4H-chromen-7-yl Sulfate]	
2.3 ± 0.5	O=c1cc(-c2ccc(OS(=O)(=O)[O-])cc2)oc2cc(OS(=O)(=O)[O-])cc(OCc3cccc(COc4cc(OS(=O)(=O)[O-])cc5oc(-c6ccc(OS(=O)(=O)[O-])cc6)cc(=O)c45)c3)c12.[Na+].[Na+].[Na+].[Na+] [NSGM 14, Sodium 4-Oxo-5-((3-(((4-oxo-7-(sulfonatooxy)-2-(4-(sulfonatooxy)phenyl)-4H-chromen-5-yl)oxy)methyl)benzyl)-oxy)-2-(4-(sulfonatooxy)phenyl)-4H-chromen-7-yl Sulfate]	
0.9 ± 0.2	O=c1cc(-c2ccc(OS(=O)(=O)[O-])cc2)oc2cc(OS(=O)(=O)[O-])cc(OC/C=C/COc3cc(OS(=O)(=O)[O-])cc4oc(-c5ccc(OS(=O)(=O)[O-])cc5)cc(=O)c34)c12.[Na+].[Na+].[Na+].[Na+] [NSGM 10, Sodium (E)-4-Oxo-5-((4-((4-oxo-7-(sulfonatooxy)-2-(4-(sulfonatooxy)phenyl)-4H-chromen-5-yl)oxy)but-2-en-1-yl)-oxy)-2-(4-(sulfonatooxy)phenyl)-4H-chromen-7-yl Sulfate]	
1.2 ± 0.2	O=c1cc(-c2ccc(OS(=O)(=O)[O-])cc2)oc2cc(OS(=O)(=O)[O-])cc(OCc3cccc(COc4cc(OS(=O)(=O)[O-])cc5oc(-c6ccc(OS(=O)(=O)[O-])cc6)cc(=O)c45)n3)c12.[Na+].[Na+].[Na+].[Na+] [NSGM 15, Sodium 4-Oxo-5-((6-(((4-oxo-7-(sulfonatooxy)-2-(4-(sulfonatooxy)phenyl)-4H-chromen-5-yl)oxy)methyl)pyridin-2-yl)methoxy)-2-(4-(sulfonatooxy)phenyl)-4H-chromen-7-yl Sulfate]	
2.0 ± 0.1	Cc1cc(COc2cc(OS(=O)(=O)[O-])cc3oc(-c4ccc(OS(=O)(=O)[O-])cc4)cc(=O)c23)c(C)cc1COc1cc(OS(=O)(=O)[O-])cc2oc(-c3ccc(OS(=O)(=O)[O-])cc3)cc(=O)c12.[Na+].[Na+].[Na+].[Na+] [NSGM 13, Sodium 5-((2,5-Dimethyl-4-(((4-oxo-7-(sulfonatooxy)-2-(4-(sulfonatooxy)phenyl)-4H-chromen-5-yl)oxy)methyl)benzyl)-oxy)-4-oxo-2-(4-(sulfonatooxy)phenyl)-4H-chromen-7-yl Sulfate]	
1.1 ± 0.1	O=c1cc(-c2ccc(OS(=O)(=O)[O-])cc2)oc2cc(OS(=O)(=O)[O-])cc(OCc3ccc(-c4ccc(COc5cc(OS(=O)(=O)[O-])cc6oc(-c7ccc(OS(=O)(=O)[O-])cc7)cc(=O)c56)cc4)cc3)c12.[Na+].[Na+].[Na+].[Na+] [NSGM 12, Sodium 4-Oxo-5-((4′-(((4-oxo-7-(sulfonatooxy)-2-(4-(sulfonatooxy)phenyl)-4H-chromen-5-yl)oxy)methyl)-[1,1′-bi-phenyl]-4-yl)methoxy)-2-(4-(sulfonatooxy)phenyl)-4H-chromen-7-yl Sulfate]	

More lines, now with the values behind:

Compound	HS (Hill slope) (human plasmin [1])	also measured
O=c1cc(-c2ccc(OS(=O)(=O)[O-])cc2)oc2cc(OS(=O)(=O)[O-])cc(OCCOc3cc(OS(=O)(=O)[O-])cc4oc(-c5ccc(OS(=O)(=O)[O-])cc5)cc(=O)c34)c12.[Na+].[Na+].[Na+].[Na+] [NSGM 7, Sodium 4-Oxo-5-(2-((4-oxo-7-(sulfonatooxy)-2-(4-(sulfonatooxy)phenyl)-4H-chromen-5-yl)oxy)ethoxy)-2-(4-(sulfonatooxy)phenyl)-4H-chromen-7-yl Sulfate]	2.4 ± 0.3	
Cc1cc(COc2cc(OS(=O)(=O)[O-])cc3oc(-c4ccc(OS(=O)(=O)[O-])c(OS(=O)(=O)[O-])c4)c(OS(=O)(=O)[O-])c(=O)c23)c(C)cc1COc1cc(OS(=O)(=O)[O-])cc2oc(-c3ccc(OS(=O)(=O)[O-])c(OS(=O)(=O)[O-])c3)c(OS(=O)(=O)[O-])c(=O)c12.[Na+].[Na+].[Na+].[Na+].[Na+].[Na+].[Na+].[Na+] [NSGM 4, Sodium 4-(5-((4-(((2-(3,4-Bis(sulfonatooxy)phenyl)-4-oxo-3,7-bis(sulfonatooxy)-4H-chromen-5-yl)oxy)methyl)-2,5-dimethylbenzyl)oxy)-4-oxo-3,7-bis(sulfonatooxy)-4H-chromen-2-yl)-1,2-phenylene Bis(sulfate)]	0.7 ± 0.1	
O=c1c(OS(=O)(=O)[O-])c(-c2ccc(OS(=O)(=O)[O-])c(OS(=O)(=O)[O-])c2)oc2cc(OS(=O)(=O)[O-])cc(OCc3ccc(-c4ccc(COc5cc(OS(=O)(=O)[O-])cc6oc(-c7ccc(OS(=O)(=O)[O-])c(OS(=O)(=O)[O-])c7)c(OS(=O)(=O)[O-])c(=O)c56)cc4)cc3)c12.[Na+].[Na+].[Na+].[Na+].[Na+].[Na+].[Na+].[Na+] [NSGM 3, Sodium 4-(5-((4′-(((2-(3,4-Bis(sulfonatooxy)phenyl)-4-oxo-3,7-bis(sulfonatooxy)-4H-chromen-5-yl)oxy)methyl)-[1,1′-bi-phenyl]-4-yl)methoxy)-4-oxo-3,7-bis(sulfonatooxy)-4H-chromen-2-yl)-1,2-phenylene Bis(sulfate)]	0.8 ± 0.2	
O=c1c(OS(=O)(=O)[O-])c(-c2ccc(OS(=O)(=O)[O-])c(OS(=O)(=O)[O-])c2)oc2cc(OS(=O)(=O)[O-])cc(OCc3ccc(COc4cc(OS(=O)(=O)[O-])cc5oc(-c6ccc(OS(=O)(=O)[O-])c(OS(=O)(=O)[O-])c6)c(OS(=O)(=O)[O-])c(=O)c45)cc3)c12.[Na+].[Na+].[Na+].[Na+].[Na+].[Na+].[Na+].[Na+]	0.7 ± 0.1	VMAX (human plasmin [2]; [inhibitor] 1.6 μM, pH 7.4, 37 °C): 36.3 ± 2.0 mAU/min; VMAX (human plasmin [2]; [inhibitor] 8 μM): 29.0 ± 0.6 mAU/min; VMAX (human plasmin [2]; [inhibitor] 100 μM): 15.1 ± 1.0 mAU/min; VMAX (human plasmin [2]; [inhibitor] 200 μM, listed as 2): 10.4 mAU/min and 10.4 ± 0.5 mAU/min
O=c1cc(-c2ccc(OS(=O)(=O)[O-])cc2)oc2cc(OS(=O)(=O)[O-])cc(OCCCCOc3cc(OS(=O)(=O)[O-])cc4oc(-c5ccc(OS(=O)(=O)[O-])cc5)cc(=O)c34)c12.[Na+].[Na+].[Na+].[Na+] [NSGM 9, Sodium 4-Oxo-5-(4-((4-oxo-7-(sulfonatooxy)-2-(4-(sulfonatooxy)phenyl)-4H-chromen-5-yl)oxy)butoxy)-2-(4-(sulfonatooxy)phenyl)-4H-chromen-7-yl Sulfate]	1.8 ± 0.3	
protamine		efficacy of restoring plasmin activity (human plasmin [3]): ~ 100%
O=c1c(OS(=O)(=O)[O-])c(-c2ccc(OS(=O)(=O)[O-])c(OS(=O)(=O)[O-])c2)oc2cc(OS(=O)(=O)[O-])cc(OCc3cccc(COc4cc(OS(=O)(=O)[O-])cc5oc(-c6ccc(OS(=O)(=O)[O-])c(OS(=O)(=O)[O-])c6)c(OS(=O)(=O)[O-])c(=O)c45)n3)c12.[Na+].[Na+].[Na+].[Na+].[Na+].[Na+].[Na+].[Na+] [NSGM 6, Sodium 4-(5-((6-(((2-(3,4-Bis(sulfonatooxy)phenyl)-4-oxo-3,7-bis(sulfonatooxy)-4H-chromen-5-yl)oxy)methyl)pyridin-2-yl)methoxy)-4-oxo-3,7-bis(sulfonatooxy)-4H-chromen-2-yl)-1,2-phenylene Bis(sulfate)]	0.8 ± 0.2	
O=c1c(O)c(-c2ccc(O)c(O)c2)oc2cc(O)cc(OCc3ccc(COc4cc(O)cc5oc(-c6ccc(O)c(O)c6)c(O)c(=O)c45)cc3)c12 [1j, 5,5′-((1,4-Phenylenebis(methylene))bis(oxy))bis(2-(3,4-dihydroxyphenyl)-3,7-dihydroxy-4H-chromen-4-one)]		fold less potent plasmin inhibition than NSGM 2 (human plasmin [1]; 1j versus 2): about 18.3 fold; VMAX (human plasmin [2]; [inhibitor] 100 μM): 51.0 ± 4.6 mAU/min; VMAX (human plasmin [2]; [inhibitor] 240 μM): 51.7 ± 3.9 mAU/min; VMAX (human plasmin [2]; [inhibitor] 400 μM): 51.3 ± 4.0 mAU/min; mechanism of plasmin inhibition (human plasmin [2]; from Michaelis-Menten kinetics): competitive; fold increase in KM (human plasmin [2]; inhibitor concentration reaching 400 μM): ~ 13.5 fold; VMAX across inhibitor concentrations (human plasmin [2]; inhibitor concentration reaching 400 μM, essentially unchanged): 50.6–51.3 mAU/min
O=c1c(OS(=O)(=O)[O-])c(-c2ccc(OS(=O)(=O)[O-])c(OS(=O)(=O)[O-])c2)oc2cc(OS(=O)(=O)[O-])cc(OCc3cccc(COc4cc(OS(=O)(=O)[O-])cc5oc(-c6ccc(OS(=O)(=O)[O-])c(OS(=O)(=O)[O-])c6)c(OS(=O)(=O)[O-])c(=O)c45)c3)c12.[Na+].[Na+].[Na+].[Na+].[Na+].[Na+].[Na+].[Na+] [NSGM 5, Sodium 4-(5-((3-(((2-(3,4-Bis(sulfonatooxy)phenyl)-4-oxo-3,7-bis(sulfonatooxy)-4H-chromen-5-yl)oxy)methyl)benzyl)-oxy)-4-oxo-3,7-bis(sulfonatooxy)-4H-chromen-2-yl)-1,2-phenylene Bis(sulfate)]	0.6 ± 0.1	
O=c1c(OS(=O)(=O)[O-])c(-c2ccc(OS(=O)(=O)[O-])c(OS(=O)(=O)[O-])c2)oc2cc(OS(=O)(=O)[O-])cc(OCCCCOc3cc(OS(=O)(=O)[O-])cc4oc(-c5ccc(OS(=O)(=O)[O-])c(OS(=O)(=O)[O-])c5)c(OS(=O)(=O)[O-])c(=O)c34)c12.[Na+].[Na+].[Na+].[Na+].[Na+].[Na+].[Na+].[Na+] [NSGM 1]	1.0 ± 0.2	
